For series [1], the target named is T1, Adenosine receptor A3 (Homo sapiens, UniProt P0DMS8).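 Also: radioligand binding assay with AB-MECA serving as the labeled ligand.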
T1 sequence (P0DMS8 whole entry): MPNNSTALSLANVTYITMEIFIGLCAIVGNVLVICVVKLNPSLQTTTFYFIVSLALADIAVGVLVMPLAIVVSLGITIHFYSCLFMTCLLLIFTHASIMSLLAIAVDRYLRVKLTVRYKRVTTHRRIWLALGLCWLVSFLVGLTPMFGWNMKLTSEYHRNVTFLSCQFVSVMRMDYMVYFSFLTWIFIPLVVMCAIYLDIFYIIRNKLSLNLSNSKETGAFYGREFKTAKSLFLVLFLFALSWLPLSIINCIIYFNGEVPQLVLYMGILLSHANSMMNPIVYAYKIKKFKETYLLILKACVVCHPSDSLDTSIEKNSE
Format: cell membranes, CHO-K1, Membrane. The note with it: cho-k1.

Series [2] deals with T2, Neuropeptide Y receptor type 1 (Homo sapiens, UniProt P25929).
T2 sequence (P25929 whole entry): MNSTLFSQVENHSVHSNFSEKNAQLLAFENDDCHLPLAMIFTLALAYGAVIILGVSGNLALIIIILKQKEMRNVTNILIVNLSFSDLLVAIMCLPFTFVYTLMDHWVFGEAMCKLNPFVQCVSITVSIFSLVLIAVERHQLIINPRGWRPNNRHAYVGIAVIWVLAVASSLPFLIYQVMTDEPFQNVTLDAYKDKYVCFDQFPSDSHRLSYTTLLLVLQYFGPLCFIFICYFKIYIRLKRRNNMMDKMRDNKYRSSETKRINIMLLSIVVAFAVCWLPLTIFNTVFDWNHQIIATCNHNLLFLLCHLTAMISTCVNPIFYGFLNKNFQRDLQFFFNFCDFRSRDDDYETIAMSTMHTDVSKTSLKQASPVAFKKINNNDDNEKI
Format: cell membranes, Membrane. The note with it: sk-n-mc.

Series [3] deals with Delta-type opioid receptor (Homo sapiens, UniProt P41143). Format: cell membranes, HEK293, Membrane. The note with it: hek293.
For series [4], the target named is Cytochrome P450 3A4 (Homo sapiens, UniProt P08684). The note with it: bti-tn-5b1-4.
The target in series [5] is T3, Muscarinic acetylcholine receptor M4 (Homo sapiens, UniProt P08173).
T3 sequence (P08173 whole entry): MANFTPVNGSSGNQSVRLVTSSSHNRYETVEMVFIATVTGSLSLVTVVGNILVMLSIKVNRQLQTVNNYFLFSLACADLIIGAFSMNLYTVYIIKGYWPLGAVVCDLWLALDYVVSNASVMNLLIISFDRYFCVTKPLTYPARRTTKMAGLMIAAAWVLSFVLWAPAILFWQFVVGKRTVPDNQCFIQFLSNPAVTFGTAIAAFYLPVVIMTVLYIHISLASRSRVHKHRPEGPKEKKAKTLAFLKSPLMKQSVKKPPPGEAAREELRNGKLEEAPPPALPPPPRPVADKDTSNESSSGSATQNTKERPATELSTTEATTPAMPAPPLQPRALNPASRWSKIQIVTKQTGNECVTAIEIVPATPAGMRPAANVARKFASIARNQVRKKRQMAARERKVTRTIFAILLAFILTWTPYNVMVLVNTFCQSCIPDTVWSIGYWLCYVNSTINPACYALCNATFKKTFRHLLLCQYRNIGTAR
Format: cell membranes, CHO-K1, Membrane.

The target in series [6] is Estrogen receptor beta (Homo sapiens, UniProt Q92731). The note with it: sf9.
The target of series [7] is T4, Nitric oxide synthase, inducible (Mus musculus, UniProt P29477).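 Also: inhibition of iNOS enzyme activity measured with L-arginine as substrate.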
T4 sequence (P29477 whole entry): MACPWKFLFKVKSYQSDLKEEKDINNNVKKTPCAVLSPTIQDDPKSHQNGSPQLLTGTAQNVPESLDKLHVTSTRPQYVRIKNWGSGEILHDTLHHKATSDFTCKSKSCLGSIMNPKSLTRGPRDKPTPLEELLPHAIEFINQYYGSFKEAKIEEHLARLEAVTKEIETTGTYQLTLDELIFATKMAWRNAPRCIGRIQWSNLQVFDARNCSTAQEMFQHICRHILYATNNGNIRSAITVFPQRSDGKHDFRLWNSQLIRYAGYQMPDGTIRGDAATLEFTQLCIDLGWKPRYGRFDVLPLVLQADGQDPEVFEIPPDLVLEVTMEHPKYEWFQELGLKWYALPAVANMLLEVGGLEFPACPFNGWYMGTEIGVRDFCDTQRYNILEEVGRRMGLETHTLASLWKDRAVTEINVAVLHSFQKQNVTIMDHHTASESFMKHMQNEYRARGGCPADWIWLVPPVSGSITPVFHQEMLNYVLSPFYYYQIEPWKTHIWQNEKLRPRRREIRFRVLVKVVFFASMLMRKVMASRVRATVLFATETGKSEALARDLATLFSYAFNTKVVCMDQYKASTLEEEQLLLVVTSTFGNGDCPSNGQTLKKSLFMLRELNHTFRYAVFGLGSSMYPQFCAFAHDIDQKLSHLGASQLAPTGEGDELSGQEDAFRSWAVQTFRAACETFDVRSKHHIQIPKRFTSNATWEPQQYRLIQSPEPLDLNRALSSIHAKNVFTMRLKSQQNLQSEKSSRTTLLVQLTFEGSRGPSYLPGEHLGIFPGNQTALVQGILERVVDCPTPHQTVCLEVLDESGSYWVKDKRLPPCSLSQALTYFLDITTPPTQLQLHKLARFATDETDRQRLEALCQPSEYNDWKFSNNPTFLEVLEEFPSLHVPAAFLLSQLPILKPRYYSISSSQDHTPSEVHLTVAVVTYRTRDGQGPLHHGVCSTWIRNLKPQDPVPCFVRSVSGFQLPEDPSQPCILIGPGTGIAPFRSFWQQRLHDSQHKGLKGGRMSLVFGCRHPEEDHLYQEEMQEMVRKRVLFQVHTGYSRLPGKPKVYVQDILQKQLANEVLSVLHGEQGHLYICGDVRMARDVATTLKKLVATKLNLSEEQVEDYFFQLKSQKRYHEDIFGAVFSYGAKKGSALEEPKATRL
Also on record: species or system Escherichia coli.
Also: in other assays of this panel Not Active means under 50% inhibition at 10 µM.

Chain of Delta-type opioid receptor (P41143 whole entry): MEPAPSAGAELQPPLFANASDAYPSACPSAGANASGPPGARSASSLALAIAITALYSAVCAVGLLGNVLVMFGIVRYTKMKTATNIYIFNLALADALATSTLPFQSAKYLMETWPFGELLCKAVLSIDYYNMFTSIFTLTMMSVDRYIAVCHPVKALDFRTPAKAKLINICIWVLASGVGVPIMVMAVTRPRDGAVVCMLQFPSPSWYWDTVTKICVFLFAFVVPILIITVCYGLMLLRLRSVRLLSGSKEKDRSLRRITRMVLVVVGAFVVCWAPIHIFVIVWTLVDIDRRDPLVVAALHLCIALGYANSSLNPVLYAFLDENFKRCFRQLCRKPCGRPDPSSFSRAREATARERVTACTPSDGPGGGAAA
Chain of Cytochrome P450 3A4 (P08684 whole entry): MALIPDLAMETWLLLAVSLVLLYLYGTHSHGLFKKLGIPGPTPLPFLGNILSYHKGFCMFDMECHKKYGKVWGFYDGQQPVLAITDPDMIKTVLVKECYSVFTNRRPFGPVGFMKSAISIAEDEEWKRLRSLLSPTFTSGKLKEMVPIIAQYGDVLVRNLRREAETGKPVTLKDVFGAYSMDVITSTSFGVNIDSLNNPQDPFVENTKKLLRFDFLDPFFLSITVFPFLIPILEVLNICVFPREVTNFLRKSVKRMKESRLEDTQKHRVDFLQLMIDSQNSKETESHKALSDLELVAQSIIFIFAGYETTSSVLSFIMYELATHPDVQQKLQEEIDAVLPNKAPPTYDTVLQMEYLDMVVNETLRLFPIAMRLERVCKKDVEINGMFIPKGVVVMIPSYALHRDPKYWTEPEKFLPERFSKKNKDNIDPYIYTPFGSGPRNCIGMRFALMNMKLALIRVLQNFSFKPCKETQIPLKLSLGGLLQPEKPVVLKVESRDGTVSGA
Chain of Estrogen receptor beta (Q92731 whole entry): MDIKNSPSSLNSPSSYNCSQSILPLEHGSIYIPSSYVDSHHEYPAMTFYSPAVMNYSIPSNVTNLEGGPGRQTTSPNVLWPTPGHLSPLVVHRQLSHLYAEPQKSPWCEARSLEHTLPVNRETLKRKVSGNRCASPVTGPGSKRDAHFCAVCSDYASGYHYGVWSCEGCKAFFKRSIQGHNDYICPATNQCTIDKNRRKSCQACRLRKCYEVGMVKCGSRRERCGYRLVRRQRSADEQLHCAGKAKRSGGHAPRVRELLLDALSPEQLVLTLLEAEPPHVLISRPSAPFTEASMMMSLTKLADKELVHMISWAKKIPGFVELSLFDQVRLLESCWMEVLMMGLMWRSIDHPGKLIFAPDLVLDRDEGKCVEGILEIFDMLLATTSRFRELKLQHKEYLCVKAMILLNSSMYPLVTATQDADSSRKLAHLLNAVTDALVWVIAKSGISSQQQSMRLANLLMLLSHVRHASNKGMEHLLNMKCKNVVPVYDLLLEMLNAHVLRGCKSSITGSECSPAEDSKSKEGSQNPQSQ

`CC(C)Cc1ccc(C(C)C(=O)O)cc1` (centres undefined) [IBUPROFEN]: the IC50 entry in series [1], in series [2], in series [3], in series [4], in series [5] (cho-k1) and in series [6] was “Not Active” in each case. For the same molecule, the IC50 entry in series [7] is recorded as “Not Active”. Also, in series [4], the Ki entry is on record as “Not Active”.
As to `CCc1c2c(nc3ccc(OC(=O)N4CCC(N5CCCCC5)CC4)cc13)-c1cc3c(c(=O)n1C2)COC(=O)[C@]3(O)CC` [IRINOTECAN], the IC50 entry in series [1] was “Not Active”; in series [2] it was “Not Active”; in series [3], “Not Active”; in series [4], “Not Active”; in series [5] (read-out: IC50), 1560 nM; in series [6], “Not Active”. For the same molecule, the IC50 result in series [7] is on record as “Not Active”. Besides, the Ki result is “Not Active” in series [4] and 217 nM in series [5] (read-out: Ki).
Consider `CC(C(=O)O)c1cccc(C(=O)c2ccccc2)c1` (centres undefined) [KETOPROFEN], for which the 50% inhibitory concentration (IC50) entry in series [1], in series [2], in series [3], in series [4], in series [5] (cho-k1) and in series [6] was “Not Active” each time. Further, the IC50 result in series [7] is “Not Active”. Moreover, the Ki entry in series [4] is reported as “Not Active”.
In the case of `Nc1ccn([C@@H]2CS[C@H](CO)O2)c(=O)n1` [LAMIVUDINE], the IC50 result in series [1], in series [2], in series [3], in series [4], in series [5] (cho-k1) and in series [6] was “Not Active” each time. Moreover, the half-maximal inhibitory concentration (IC50) entry in series [7] is “Not Active”. The Ki result in series [4] is “Not Active”.
For `O=S(=O)([O-])CCS.[Na+]` [MESNA], the IC50 result in series [1], in series [2], in series [3], in series [4], in series [5] (cho-k1) and in series [6] was “Not Active” throughout. In addition, in series [7], the IC50 entry was “Not Active”. Besides, the inhibition constant (Ki) result in series [4] is given as “Not Active”.
Take `CC(=O)Nc1cccc(O)c1` [METACETAMOL]: the IC50 result in series [1], in series [2], in series [3], in series [4], in series [5] (cho-k1) and in series [6] was “Not Active” in each case. For the same molecule, the IC50 result in series [7] was “Not Active”. Moreover, the Ki entry in series [4] is reported as “Not Active”.
As to `Oc1ccc(OCc2ccccc2)cc1` [MONOBENZONE], the IC50 entry in series [1], in series [2], in series [3], in series [4], in series [5] (cho-k1) and in series [6] was “Not Active” each time. For the same molecule, the IC50 entry in series [7] is “Not Active”. Further, the Ki entry in series [4] is listed as “Not Active”.
Turning to `CC(C)(Oc1ccc(C2CCCc3ccccc32)cc1)C(=O)O` (centres undefined) [NAFENOPIN], the IC50 result in series [1], in series [2], in series [3], in series [4], in series [5] (cho-k1) and in series [6] was “Not Active” throughout. Moreover, in series [7], the IC50 entry was “Not Active”. The Ki entry in series [4] is “Not Active”.
In the case of `CC(C)[C@H]1CC[C@H](C(=O)N[C@H](Cc2ccccc2)C(=O)O)CC1` [NATEGLINIDE], the IC50 entry in series [1], in series [2], in series [3], in series [4], in series [5] (cho-k1) and in series [6] was “Not Active” in each case. The IC50 entry in series [7] is on record as “Not Active”. Also, the Ki entry in series [4] is “Not Active”.
For `CCN[C@@H]1C[C@H](N)[C@@H](O[C@H]2OC(CN)=CC[C@H]2N)[C@H](O)[C@H]1O[C@H]1OC[C@](C)(O)[C@H](NC)[C@H]1O` [NETILMICIN], the IC50 result in series [1], in series [2], in series [3], in series [4], in series [5] (cho-k1) and in series [6] was “Not Active” in each case. In series [7], the IC50 result is “Not Active”. Further, the Ki entry in series [4] was “Not Active”.
With `CCOC(=O)C1=C(C)NC(C)=C(C(=O)OC)C1c1cccc([N+](=O)[O-])c1` (centres undefined) [NITRENDIPINE], the IC50 entry in series [1], in series [2], in series [3], in series [4], in series [5] (cho-k1) and in series [6] was “Not Active” each time. Moreover, the IC50 entry in series [7] is recorded as “Not Active”. Further, the Ki entry in series [4] is “Not Active”.
Consider `C#C[C@]1(OC(C)=O)CC[C@H]2[C@@H]3CCC4=CC(=O)CC[C@@H]4[C@H]3CC[C@@]21C` [NORETHINDRONE ACETATE], for which the IC50 entry in series [1], in series [2], in series [3], in series [4], in series [5] (cho-k1) and in series [6] was “Not Active” throughout. Further, the IC50 result in series [7] was “Not Active”. Also, the Ki entry in series [4] is recorded as “Not Active”.
As to `COc1ccc2[nH]c([S+]([O-])Cc3ncc(C)c(OC)c3C)nc2c1` (centres undefined) [OMEPRAZOLE], the IC50 entry in series [1], in series [2], in series [3], in series [4], in series [5] (cho-k1) and in series [6] was “Not Active” throughout. Also, in series [7], the IC50 result is “Not Active”. Besides, the Ki entry in series [4] was “Not Active”.
As for `Cc1nccn1CC1CCc2c(c3ccccc3n2C)C1=O` (centres undefined) [ONDANSETRON], the IC50 result in series [1], in series [2], in series [3], in series [4], in series [5] (cho-k1) and in series [6] was “Not Active” each time. Further, the IC50 result in series [7] is “Not Active”. The Ki entry in series [4] is “Not Active”.
Take `CCCCOc1ccc(OCCCN2CCOCC2)cc1` [PRAMOXINE]: the IC50 result in series [1], in series [2], in series [3], in series [4], in series [5] (cho-k1) and in series [6] was “Not Active” each time. In addition, in series [7], the IC50 result is reported as “Not Active”. Also, the Ki entry in series [4] was “Not Active”.
Regarding `NC(=O)c1cnccn1` [PYRAZINAMIDE], the IC50 result in series [1], in series [2], in series [3], in series [4], in series [5] (cho-k1) and in series [6] was “Not Active” each time. Also, the IC50 entry in series [7] is reported as “Not Active”. For the same molecule, in series [4], the Ki result is “Not Active”.

In general, IC50 refers to the concentration that inhibits the measured activity by half. The term Ki denotes a dissociation constant, usually derived from enzyme kinetics or from competition with a known ligand.

For the origin of these results see ChEMBL document CHEMBL1909046, “DrugMatrix in vitro pharmacology data”.
